Experimental data: patent publication US20220348558A1, “INHIBITORS OF ENCEPHALITIC ALPHAVIRUSES” (priority 2019, published 2022)

Assays:
VEEV TC83 = assay: microbe, parasite or virus in culture; format: cell-based; details: Venezuelan equine encephalitis virus, Vero 76, 48 h, read-out: VEEV TC83 EC50 nM
WEEV California = assay: microbe, parasite or virus in culture; format: cell-based; details: Western equine encephalitis virus, Vero 76, 48 h, read-out: WEEV California EC50 nM

| Compound | EC50 (VEEV TC83) [nM] | EC50 (WEEV California) [nM] |
| --- | --- | --- |
| COc1ccc(-n2c(C3CCCN3Cc3ccc(F)cc3)nc3c(C)cc([N+](=O)[O-])cc3c2=O)cc1F (stereo not drawn) [Example 204, 3-(3-fluoro-4-methoxyphenyl)-2-(1-(4-fluorobenzyl)pyrrolidin-2-yl)-8-methyl-6-nitroquinazolin-4 (3H)-one] | 51 to 150 | 151 to 500 |
| COc1ccc(-n2c([C@H]3CCN(C)C3)nc3c(C)cc([N+](=O)[O-])cc3c2=O)cc1F [Example 66, (S)-3-(3-fluoro-4-methoxyphenyl)-8-methyl-2-(1-methylpyrrolidin-3-yl)-6-nitroquinazolin-4 (3H)-one] | 151 to 500 | 151 to 500 |
| COc1ccc(-n2c([C@H]3CCCN3)nc3c(-c4ccnc(F)c4)cc([N+](=O)[O-])cc3c2=O)cc1F [Example 90, (R)-3-(3-fluoro-4-methoxyphenyl)-8-(2-fluoropyridin-4-yl)-6-nitro-2-(pyrrolidin-2-yl) quinazolin-4 (3H)-one] | 1 to 50 | 1 to 50 |
| COc1ccc(-n2c([C@@H]3CC(=O)CN3)nc3c(-c4ccc(C)nc4)cc(C#N)cc3c2=O)cc1F [Example 185, (S)-3-(3-fluoro-4-methoxyphenyl)-8-(6-methylpyridin-3-yl)-4-oxo-2-(4-oxopyrrolidin-2-yl)-3,4-dihydroquinazoline-6-carbonitrile] | 151 to 500 | > 1000 |
| COc1ccc(-n2c([C@H]3CCCN3)nc3cc(C)c([N+](=O)[O-])cc3c2=O)cc1 [Example 43, (R)-3-(4-methoxyphenyl)-7-methyl-6-nitro-2-(pyrrolidin-2-yl) quinazolin-4 (3H)-one] | 1 to 50 | 1 to 50 |
| COc1ccc(-n2c(C3CCCN3)nc3c(-c4ccc(O)cc4)cc(C#N)cc3c2=O)cc1F (stereo not drawn) [Example 158, 3-(3-Fluoro-4-methoxyphenyl)-8-(4-hydroxyphenyl)-4-oxo-2-(pyrrolidin-2-yl)-3,4-dihydroquinazoline-6-carbonitrile] | 501 to 1000 | 501 to 1000 |
| COc1ccc(-n2c(C3CCCN3)nc3c(-c4ccc(-c5ccccc5)nc4)cc(C#N)cc3c2=O)cc1F (stereo not drawn) [Example 133, 3-(3-fluoro-4-methoxyphenyl)-4-oxo-8-(6-phenylpyridin-3-yl)-2-(pyrrolidin-2-yl)-3,4-dihydroquinazoline-6-carbonitrile] | 1 to 50 | 1 to 50 |
| COc1ccc(-n2c([C@H]3CCCN3)nc3c(-c4ccc(C(F)(F)F)nc4)cc([N+](=O)[O-])cc3c2=O)cc1F [Example 91, (R)-3-(3-fluoro-4-methoxyphenyl)-6-nitro-2-(pyrrolidin-2-yl)-8-(6-(trifluoromethyl)pyridin-3-yl) quinazolin-4 (3H)-one] | 1 to 50 | 1 to 50 |
| COc1c(F)cc(-n2c(C3C[C@H](F)CN3)nc3c(-c4ccnc(C)c4)cc(C#N)cc3c2=O)cc1F (stereo partly drawn) [Example 156, 3-(3,5-Difluoro-4-methoxyphenyl)-2-((4S)-4-fluoropyrrolidin-2-yl)-8-(2-methylpyridin-4-yl)-4-oxo-3,4-dihydroquinazoline-6-carbonitrile] | 1 to 50 | 151 to 500 |
| COc1ccc(-n2c([C@H]3CCCN3)nc3cc([N+](=O)[O-])ccc3c2=O)cc1 [Example 48, (R)-3-(4-methoxyphenyl)-7-nitro-2-(pyrrolidin-2-yl)quinazolin-4 (3H)-one] | > 1000 | > 1000 |
| Cc1cc([N+](=O)[O-])cc2c(=O)n(-c3ccc(Cl)c(F)c3)c([C@H]3CCCN3)nc12 [Example 60, (R)-3-(4-chloro-3-fluorophenyl)-8-methyl-6-nitro-2-(pyrrolidin-2-yl) quinazolin-4 (3H)-one] | 1 to 50 | 1 to 50 |
| COc1ccc(-n2c([C@H]3CCCCN3)nc3ccc([N+](=O)[O-])cc3c2=O)cc1 [Example 33, (R)-3-(4-methoxyphenyl)-6-nitro-2-(piperidin-2-yl)quinazolin-4 (3H)-one] | 151 to 500 | 151 to 500 |
| COc1ccc(-n2c([C@H]3CCCN3)nc3c(Br)cc([N+](=O)[O-])cc3c2=O)cc1 [Example 80, (R)-8-bromo-3-(4-methoxyphenyl)-6-nitro-2-(pyrrolidin-2-yl) quinazolin-4 (3H)-one] | 1 to 50 | 1 to 50 |
| COc1ccc(-n2c([C@H](C)N(C)C)nc3ccc([N+](=O)[O-])cc3c2=O)cc1 [Example 208, (S)-2-(1-(dimethylamino)ethyl)-3-(4-methoxyphenyl)-6-nitroquinazolin-4 (3H)-one] | 51 to 150 | 51 to 150 |
| COc1ccc(-n2c([C@H]3CC(=O)CN3)nc3c(-c4ccc(C)nc4)cc(C#N)cc3c2=O)cc1F [Example 186, (R)-3-(3-fluoro-4-methoxyphenyl)-8-(6-methylpyridin-3-yl)-4-oxo-2-(4-oxopyrrolidin-2-yl)-3,4-dihydroquinazoline-6-carbonitrile] | 151 to 500 | 501 to 1000 |
| COc1ccc(-n2c([C@H]3CCCN3)nc3ccc(C#N)c(F)c3c2=O)cc1 [Example 73, (R)-5-fluoro-3-(4-methoxyphenyl)-4-oxo-2-(pyrrolidin-2-yl)-3,4-dihydroquinazoline-6-carbonitrile] | > 1000 | > 1000 |
| C=C(C)c1ccc(-c2cc(C#N)cc3c(=O)n(-c4cc(F)c(OC)c(F)c4)c(C4CCCN4)nc23)cc1 (stereo not drawn) [Example 172, 3-(3,5-difluoro-4-methoxyphenyl)-4-oxo-8-(4-(prop-1-en-2-yl)phenyl)-2-(pyrrolidin-2-yl)-3,4-dihydroquinazoline-6-carbonitrile] | 51 to 150 | 51 to 150 |
| COc1ccc(-n2c(-c3nccn3C)nc3c(-c4ccc(C)nc4)cc(C#N)cc3c2=O)cc1F [Example 203, 3-(3-fluoro-4-methoxyphenyl)-2-(1-methyl-1H-imidazol-2-yl)-8-(6-methylpyridin-3-yl)-4-oxo-3,4-dihydroquinazoline-6-carbonitrile] | 51 to 150 | 151 to 500 |
| O=c1c2cc([N+](=O)[O-])ccc2nc([C@H]2CCCN2)n1-c1ccc(OC(F)(F)F)cc1 [Example 44, (R)-6-nitro-2-(pyrrolidin-2-yl)-3-(4-(trifluoromethoxy)phenyl)quinazolin-4 (3H)-one] | > 1000 | > 1000 |
| COc1c(F)cc(-n2c([C@H]3CCCN3)nc3c(-c4ccc(C)nc4)cc(C#N)cc3c2=O)cc1F [Example 119, (R)-3-(3,5-difluoro-4-methoxyphenyl)-8-(6-methylpyridin-3-yl)-4-oxo-2-(pyrrolidin-2-yl)-3,4-dihydroquinazoline-6-carbonitrile] | 1 to 50 | 1 to 50 |
| COc1ccc(-n2c(C3CCCN3)nc3c(-c4ccc(CO)cc4)cc(C#N)cc3c2=O)cc1F (stereo not drawn) [Example 134, 3-(3-fluoro-4-methoxyphenyl)-8-(4-(hydroxymethyl)phenyl)-4-oxo-2-(pyrrolidin-2-yl)-3,4-dihydroquinazoline-6-carbonitrile] | 1 to 50 | 1 to 50 |
| COc1ccc(-n2c([C@H]3C[C@H](F)CN3)nc3c(C)cc(C#N)cc3c2=O)cc1F [Example 54, 3-(3-fluoro-4-methoxyphenyl)-2-((2R,4S)-4-fluoropyrrolidin-2-yl)-8-methyl-4-oxo-3,4-dihydroquinazoline-6-carbonitrile] | 151 to 500 | 151 to 500 |
| N#Cc1ccc(-n2c([C@H]3CCCN3)nc3ccc([N+](=O)[O-])cc3c2=O)cc1 [Example 20, (R)-4-(6-nitro-4-oxo-2-(pyrrolidin-2-yl)quinazolin-3 (4H)-yl)benzonitrile] | 1 to 50 | 51 to 150 |
| COc1ccc(-n2c(C3CCCN3)nc3ccc([N+](=O)[O-])cc3c2=O)cc1 (stereo not drawn) [Example 8, 3-(4-methoxyphenyl)-6-nitro-2-(pyrrolidin-2-yl) quinazolin-4 (3H)-one] | 1 to 50 | 1 to 50 |
| COc1ccc(-n2c([C@@]3(C)CCCN3)nc3c(-c4ccc(C)nc4)cc(C#N)cc3c2=O)cc1F [Example 141, (R)-3-(3-fluoro-4-methoxyphenyl)-8-(6-methylpyridin-3-yl)-2-(2-methylpyrrolidin-2-yl)-4-oxo-3,4-dihydroquinazoline-6-carbonitrile] | 1 to 50 | 1 to 50 |
| COc1c(F)cc(-n2c(C3CCCN3)nc3c(-c4ccc(C(C)(C)O)cc4)cc(C#N)cc3c2=O)cc1F (stereo not drawn) [Example 171, 3-(3,5-difluoro-4-methoxyphenyl)-8-(4-(2-hydroxypropan-2-yl)phenyl)-4-oxo-2-(pyrrolidin-2-yl)-3,4-dihydroquinazoline-6-carbonitrile] | 51 to 150 | 51 to 150 |
| COc1ccc(-n2c([C@H]3CCCN3)nc3c(-c4cncc(C#N)c4)cc([N+](=O)[O-])cc3c2=O)cc1F [Example 94, (R)-3-(3-fluoro-4-methoxyphenyl)-8-(5-cyanopyridin-3-yl)-6-nitro-2-(pyrrolidin-2-yl) quinazolin-4 (3H)-one] | 1 to 50 | 51 to 150 |
| COc1ccc(-n2c(C3CCCN3)nc3c(-c4ccc(S(C)(=O)=O)cc4)cc(C#N)cc3c2=O)cc1F (stereo not drawn) [Example 136, 3-(3-fluoro-4-methoxyphenyl)-8-(4-(methylsulfonyl)phenyl)-4-oxo-2-(pyrrolidin-2-yl)-3,4-dihydroquinazoline-6-carbonitrile] | 1 to 50 | 1 to 50 |
| Cc1ccc(-c2cc(C#N)cc3c(=O)n(-c4ccc(N5CCOCC5)c(F)c4)c(C4CCCN4)nc23)cn1 (stereo not drawn) [Example 146, 3-(3-Fluoro-4-morpholinophenyl)-8-(6-methylpyridin-3-yl)-4-oxo-2-(pyrrolidin-2-yl)-3,4-dihydroquinazoline-6-carbonitrile] | 151 to 500 | 501 to 1000 |
| COc1ccc(-n2c(C3CCCN3)nc3c(-c4ccc(NS(C)(=O)=O)cc4)cc(C#N)cc3c2=O)cc1F (stereo not drawn) [Example 157, N-(4-(6-Cyano-3-(3-fluoro-4-methoxyphenyl)-4-oxo-2-(pyrrolidin-2-yl)-3,4-dihydroquinazolin-8-yl)phenyl)methanesulfonamide] | 51 to 150 | 51 to 150 |
